Measurements as given in patent US7371730B2, “Crystals of glucopyranosyloxybenzyl benzene derivative” (Kissei Pharmaceutical Co., Ltd., priority 2002, dated 2008).

Assay: Stability test (storage; HPLC residual percentage and X-ray powder diffraction)
Type: physicochemical
Details: storage 40° C./75% RH, 2 months, stopper tightly, and 60° C.
Protocol: Stability tests were carried out under the following conditions for crystalline forms α and β. Residual percentages of test substances were determined by HPLC, and changes in crystalline form were examined by X-ray powder diffraction analysis.
• detection; 225 nm • column; Inertsil ODS-3 • column temperature; 30° C. • mobile phase; 0.02 mol/L phosphate buffer (pH 3.0): acetonitrile=58:42→30:70 • flow rate; 1.0 mL/min. Storage conditions: • 1) 40° C./75% RH, 2 months, stopper tightly • 2) 60° C., 2 months, stopper tightly

CCOC(=O)OC[C@H]1O[C@@H](Oc2ccccc2Cc2ccc(OC)cc2)[C@H](O)[C@@H](O)[C@@H]1O [crystalline form α, 2-(4-methoxybenzyl)phenyl 6-O-ethoxycarbonyl-β-D-glucopyranoside]
changes in crystalline form (X-ray powder diffraction analysis): no change | residual percentage of test substance (HPLC): no change
